The values below come from patent publication US20260176249A1, “PROTEIN KINASE INHIBITOR, PREPARATION METHOD THEREFOR, AND APPLICATION THEREOF” (SHANDONG LUYE PHARMACEUTICAL CO., LTD., priority 2021, published 2026).

By CLint scaled is commonly meant the rate of metabolic loss divided by the concentration. The term half-life denotes the time needed for the level to fall by half in the phase considered. One may read the efflux ratio as a quotient of directional permeabilities that is used to spot active efflux. Broadly, the Papp A→B is the apparent permeability from the apical to the basolateral side of a cell layer. A word on the Papp B→A: it is how fast a substance crosses the layer from the basolateral side.

Like-named read-outs stand apart in the source and are kept apart here.

Data set [1] in a line: Metabolic stability in human liver microsomes. The class given is in vitro ADME. The note with it: for CLint scaled at 1 µM / half-life at 1 µM / microsomal CLint at 1 µM: human; for CLint scaled at 1 µM / half-life at 1 µM: pH 7.4; for microsomal CLint at 1 µM: pH 7.4, read-out: CLint(mic). The essentials:
(§1)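 Compounds incubated at 37 °C with mouse, rat or human liver microsomes in 100 mM phosphate buffer pH 7.4, started with NADPH/MgCl2 and sampled at 0–60 min. Parent remaining quantified by LC-MS. T1/2 and CLint(mic) derived from depletion, scaled to CLint using 45 mg protein/g liver and species liver/body weight ratios.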
(In general: Liver microsomes are vesicles of endoplasmic reticulum, rich in cytochrome P450 enzymes.)

Data set [2] is described as follows: Metabolic stability in rat liver microsomes. The class given is in vitro ADME. The note with it: for CLint scaled at 1 µM / half-life at 1 µM / microsomal CLint at 1 µM: rat; for CLint scaled at 1 µM / half-life at 1 µM: pH 7.4; for microsomal CLint at 1 µM: pH 7.4, read-out: CLint(mic). The essentials:
as §1

Data set [3] concerns Caco-2 cells. The data set is described as follows: Permeability and efflux transporter substrate evaluation in Caco-2 cells. As to conditions: Caco-2. Set-up: Papp A→B at 120 min / Papp B→A at 120 min / efflux ratio at 120 min / Papp at 120 min: dose or concentration left out as unconfirmed. The class given is in vitro ADME. In a few lines: (§2)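 Bidirectional (A-B, B-A) transport across 21-28-day Caco-2 monolayers in HBSS/10 mM HEPES pH 7.40, test substance at […], 7200 s incubation. LC-MS/MS quantitation; Papp, efflux ratio and recovery calculated, monolayer integrity checked by Lucifer Yellow rejection.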
On the technique in general: Caco-2 cells form a polarised layer with tight junctions and transporters.

Experiment in data set [4]: as above
The arrangement: Papp A→B at 120 min / Papp B→A at 120 min / efflux ratio at 120 min / Papp at 120 min: dose or concentration left out as unconfirmed. The note with it: human; for efflux ratio at 120 min / Papp at 120 min: Caco-2, pH 7.4; for Papp at 120 min: read-out: Classification Permeability; for Papp A→B at 120 min / Papp B→A at 120 min: pH 7.4, pH 7.40; for Papp A→B at 120 min: Caco-2, apical to basolateral; for Papp B→A at 120 min: Caco-2, basolateral to apical. In kind it is in vitro ADME. The essentials:
as §2

The test system of data set [5] is HCT116 cells. The data set is described as follows: Inhibitory activity on HCT116 cell proliferation (ATPlite). In kind it is cell-based. The note with it: Homo sapiens, HCT-116, HCT116 cells, 72 h. The essentials:
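HCT116 cells seeded at 720 cells/well in RPMI1640 + 10% FBS and grown overnight at 37 °C, 5% CO2, then exposed to compound for 72 h. Viability read by ATPlite 1step luminescence; IC50 calculated from inhibition-rate curves.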
On the technique in general: ATP-based viability assays read luminescence as a measure of living cells.

[6] abbreviates: read-out: half inhibitory concentration.

As to `CN1CCN(c2ccc(OC(F)(F)F)c(Nc3ncc4c(n3)-c3c(c(C(N)=O)cn3CCO)CC4)c2)CC1` [Compound 2], in data set [1], the “60 min remaining amount” value was 49.9%, the Clearance rate result is “Medium”, the CLint scaled at 1 µM turned out to be 22.7 mL/min/kg and the half-life at 1 µM amounted to 55 min. The microsomal CLint at 1 µM in data set [1] worked out at 25.2 µL/min/mg. Also, in data set [2], the “60 min remaining amount” value is on record as 17.0%, the Clearance rate entry was “Medium”, the CLint scaled at 1 µM turned out to be 103 mL/min/kg and the half-life at 1 µM was 24.3 min. Also, the microsomal CLint at 1 µM in data set [2] was 57 µL/min/mg. For the same compound, the “Classification Efflux transporter substrate” value in data set [3] was “Likely (ERa ≥ 2.00)”. In data set [4], the efflux ratio at 120 min was above 54.4, the Papp at 120 min was below 0.5 ×10⁻⁶ cm/s, the Papp A→B at 120 min was below 0.48 ×10⁻⁶ cm/s and the Papp B→A at 120 min was 26.1 ×10⁻⁶ cm/s. In addition, the IC50 in data set [5] (read-out: IC50) stood at 27 nM. For the same compound, in data set [5] (setting [6]), the IC50 came out at 27 nM.
As to `CN1CCN(c2ccc(OC(F)(F)F)c(Nc3ncc4c(n3)-c3c(c(C(N)=O)nn3CCC#N)CC4)c2)CC1` [Compound 4], in data set [1], the “60 min remaining amount” value is on record as 23.7%, the Clearance rate result is reported as “Medium”, the CLint scaled at 1 µM came out at 44.1 mL/min/kg and the half-life at 1 µM turned out to be 28.3 min. In data set [1], the microsomal CLint at 1 µM was determined as 49 µL/min/mg. In data set [2], the “60 min remaining amount” value was found to be 2.76%, the Clearance rate entry was “High”, the CLint scaled at 1 µM is 211 mL/min/kg and the half-life at 1 µM came to 11.8 min. The microsomal CLint at 1 µM in data set [2] worked out at 117 µL/min/mg. The “Classification Efflux transporter substrate” value in data set [3] is recorded as “Likely (ERa ≥ 2.00)”. Besides, in data set [4], the efflux ratio at 120 min stood at 22.1, the Papp at 120 min fell in the range of 0.5 to 2.5 ×10⁻⁶ cm/s, the Papp A→B at 120 min was 1.16 ×10⁻⁶ cm/s and the Papp B→A at 120 min was 25.5 ×10⁻⁶ cm/s. Also, in data set [5] (read-out: IC50), the IC50 was 332 nM.
On to `CN1CCN(c2ccc(OC(F)(F)F)c(Nc3ncc4c(n3)-c3c(c(C(=O)NN)nn3CCO)CC4)c2)CC1` [Compound 13], for which, in data set [1], the “60 min remaining amount” value amounted to 58.5%, the Clearance rate result was “Medium”, the CLint scaled at 1 µM was 17.5 mL/min/kg and the half-life at 1 µM came to 71.4 min. Besides, the microsomal CLint at 1 µM in data set [1] stood at 19.4 µL/min/mg. Besides, in data set [2], the “60 min remaining amount” value came to 27.8%, the Clearance rate entry was “Medium”, the CLint scaled at 1 µM was 74.5 mL/min/kg and the half-life at 1 µM stood at 33.5 min. In addition, the microsomal CLint at 1 µM in data set [2] was found to be 41.4 µL/min/mg. The “Classification Efflux transporter substrate” value in data set [3] is recorded as “Likely (ERa ≥ 2.00)”. In data set [4], the efflux ratio at 120 min was above 28.6, the Papp at 120 min is below 0.5 ×10⁻⁶ cm/s, the Papp A→B at 120 min was below 0.48 ×10⁻⁶ cm/s and the apparent permeability from basolateral to apical (Papp B→A) at 120 min is 13.7 ×10⁻⁶ cm/s. Also, in data set [5] (read-out: IC50), the IC50 is 831 nM.
For the compound `Cn1nc(C(N)=O)c2ccc3cnc(Nc4cc(N5CCN(CCO)CC5)ccc4OC(F)(F)F)nc3c21` [Compound 16], in data set [1], the “60 min remaining amount” value was 23.3%, the Clearance rate result is “Medium”, the CLint scaled at 1 µM is 44.1 mL/min/kg and the half-life at 1 µM amounted to 28.3 min. The microsomal CLint at 1 µM in data set [1] is 49 µL/min/mg. Also, in data set [2], the “60 min remaining amount” value is on record as 21.6%, the Clearance rate result was “Medium”, the CLint scaled at 1 µM worked out at 90 mL/min/kg and the half-life at 1 µM came to 27.7 min. For the same compound, the microsomal CLint at 1 µM in data set [2] was determined as 50.5 µL/min/mg. Also, the “Classification Efflux transporter substrate” value in data set [3] was “Likely (ERa ≥ 2.00)”. Besides, in data set [4], the efflux ratio at 120 min turned out to be 7.27, the Papp at 120 min is 0.5 to 2.5 ×10⁻⁶ cm/s, the apparent permeability from apical to basolateral (Papp A→B) at 120 min was found to be 0.917 ×10⁻⁶ cm/s and the Papp B→A at 120 min came out at 6.66 ×10⁻⁶ cm/s. Moreover, the IC50 in data set [5] (read-out: IC50) is 502 nM.
For `Cn1nc(C(N)=O)c2c1-c1nc(Nc3cc(N4CCN(CCO)CC4)ccc3OC(F)(F)F)ncc1CC2` [Compound 20], in data set [1], the “60 min remaining amount” value is 26.5%, the Clearance rate entry is reported as “Medium”, the CLint scaled at 1 µM stood at 39.1 mL/min/kg and the half-life at 1 µM turned out to be 31.9 min. Also, the microsomal CLint at 1 µM in data set [1] stood at 43.4 µL/min/mg. Besides, in data set [2], the “60 min remaining amount” value came to 21.6%, the Clearance rate result is on record as “Medium”, the CLint scaled at 1 µM came out at 95.4 mL/min/kg and the half-life at 1 µM stood at 26.2 min. Further, the microsomal CLint at 1 µM in data set [2] amounted to 53 µL/min/mg. Also, in data set [3], the “Classification Efflux transporter substrate” value is “Likely (ERa ≥ 2.00)”. Moreover, in data set [4], the efflux ratio at 120 min stood at 10.4, the Papp at 120 min was 0.5 to 2.5 ×10⁻⁶ cm/s, the apparent permeability from apical to basolateral (Papp A→B) at 120 min was determined as 1.3 ×10⁻⁶ cm/s and the Papp B→A at 120 min is 13.4 ×10⁻⁶ cm/s. The IC50 in data set [5] (read-out: IC50) was 143 nM.
Take `CN1CCN(c2ccc(OCC(F)(F)F)c(Nc3ncc4c(n3)-c3c(c(C(N)=O)nn3CCO)CC4)c2)CC1` [Compound 24]: in data set [1], the “60 min remaining amount” value was 40.1%, the Clearance rate entry is “Medium”, the CLint scaled at 1 µM came out at 28.6 mL/min/kg and the half-life at 1 µM stood at 43.6 min. Moreover, in data set [1], the microsomal CLint at 1 µM is 31.8 µL/min/mg. In data set [2], the “60 min remaining amount” value was 47.9%, the Clearance rate result is given as “Medium”, the CLint scaled at 1 µM stood at 46.4 mL/min/kg and the half-life at 1 µM worked out at 53.7 min. In addition, the microsomal CLint at 1 µM in data set [2] was determined as 25.8 µL/min/mg. The “Classification Efflux transporter substrate” value in data set [3] is recorded as “Likely (ERa ≥ 2.00)”. In data set [4], the efflux ratio at 120 min stood at 279, the Papp at 120 min is below 0.5 ×10⁻⁶ cm/s, the Papp A→B at 120 min turned out to be 0.106 ×10⁻⁶ cm/s and the Papp B→A at 120 min came to 29.5 ×10⁻⁶ cm/s. Besides, the IC50 in data set [5] (read-out: IC50) was found to be 32 nM. For the same compound, in data set [5] (setting [6]), the IC50 was found to be 32 nM.
On to `CN1CCN(c2ccc(OC(F)(F)F)c(Nc3ncc4c(n3)-c3c(c(C(N)=O)nn3CCO)CC4)c2)CC1` [Onvansertib, reference compound], for which, in data set [1], the “60 min remaining amount” value is reported as 64.8%, the Clearance rate result is recorded as “Medium”, the CLint scaled at 1 µM was 15.3 mL/min/kg and the half-life at 1 µM is 81.5 min. Also, the microsomal CLint at 1 µM in data set [1] was determined as 17 µL/min/mg. In data set [2], the “60 min remaining amount” value is listed as 15.7%, the Clearance rate entry was “Medium”, the intrinsic clearance (CLint scaled) at 1 µM was found to be 110 mL/min/kg and the half-life at 1 µM worked out at 22.7 min. In addition, the microsomal CLint at 1 µM in data set [2] came to 61 µL/min/mg. The “Classification Efflux transporter substrate” value in data set [3] is listed as “Likely (ERa ≥ 2.00)”. In addition, in data set [4], the Papp at 120 min is below 0.5 ×10⁻⁶ cm/s, the Papp A→B at 120 min amounted to 0.299 ×10⁻⁶ cm/s and the Papp B→A at 120 min was 43.6 ×10⁻⁶ cm/s. In addition, in data set [5] (read-out: IC50), the IC50 was 42 nM.
